Reference: patent US20080009418A1, “Selective Inhibitors” (Alchemia LTD., priority 2004, published 2008)

What was measured:
[1] = target: T1, Human melanin-concentrating hormone (MCH1) (Homo sapiens, UniProt Q99705); test: Radioligand binding, human melanin-concentrating hormone MCH1 membranes, FlashPlate, [125I]-S36057; conditions: compound at 10 μM; for A6: inhibition of radioligand binding, human melanin-concentrating hormone (MCH1): [125I]-S36057; for A6: inhibition of radioligand binding: [125I]-S36057, human MCH1 membranes
T1 construct: purchased Perkin Elmer Biosignal
T1 sequence (Q99705 whole entry): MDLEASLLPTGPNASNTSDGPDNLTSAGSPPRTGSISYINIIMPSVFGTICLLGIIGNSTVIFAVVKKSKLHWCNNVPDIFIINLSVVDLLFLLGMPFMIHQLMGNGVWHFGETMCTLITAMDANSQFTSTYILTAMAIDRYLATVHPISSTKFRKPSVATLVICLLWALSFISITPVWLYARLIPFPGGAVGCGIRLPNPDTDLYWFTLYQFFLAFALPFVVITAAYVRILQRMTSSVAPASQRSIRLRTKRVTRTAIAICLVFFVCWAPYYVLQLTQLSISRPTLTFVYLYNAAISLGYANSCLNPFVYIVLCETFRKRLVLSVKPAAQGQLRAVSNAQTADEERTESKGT
Procedure, shortened: (§1)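 Cloned human receptor membranes were coated onto FlashPlate wells and incubated with radioligand and compound (added from a 0.5 mM DMSO daughter plate) for 1 hour at room temperature in the dark. Scintillation counting gave percent inhibition, with DMSO defining total and reference ligand defining non-specific binding.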

[2] = target: T2, Human κ-Opioid (KOP) (Homo sapiens, UniProt P41145); test: Radioligand binding, human κ-opioid (KOP) membranes, filtration, [3H]-Diprenorphine; conditions: compound at 10 μM, [3H]-Diprenorphine; for A2: inhibition of radioligand binding: human KOP membranes
T2 construct: purchased Perkin Elmer Biosignal
T2 sequence (P41145 whole entry): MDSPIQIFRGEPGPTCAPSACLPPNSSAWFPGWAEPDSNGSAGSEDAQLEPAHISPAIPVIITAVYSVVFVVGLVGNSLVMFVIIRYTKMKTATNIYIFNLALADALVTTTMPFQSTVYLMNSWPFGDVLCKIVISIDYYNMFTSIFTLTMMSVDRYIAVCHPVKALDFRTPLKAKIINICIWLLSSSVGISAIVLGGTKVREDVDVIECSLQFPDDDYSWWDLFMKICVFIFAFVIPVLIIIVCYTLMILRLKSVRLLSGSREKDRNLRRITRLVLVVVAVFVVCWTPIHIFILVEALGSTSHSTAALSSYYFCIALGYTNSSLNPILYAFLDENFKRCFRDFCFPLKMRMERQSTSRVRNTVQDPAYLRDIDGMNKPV
Procedure, shortened: (§2)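 Membranes from cloned human receptors were incubated with compound and radioligand for 1 hour at room temperature. Bound ligand was collected on 0.3% PEI-soaked filters, washed with cold 50 mM Tris-HCl pH 7.4, and counted by scintillation. Percent inhibition was computed against DMSO totals and reference-ligand nonspecific wells.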

[3] = target: T3, Human Melanocortin (MC3) (Homo sapiens, UniProt P41968); test: Radioligand binding, human melanocortin MC3 membranes, FlashPlate, [125I]-NDP-αMSH; conditions: compound at 10 μM, [125I]-NDP-αMSH; for A3: inhibition of radioligand binding: human MC3 membranes
T3 construct: purchased Perkin Elmer Biosignal
T3 sequence (P41968 whole entry): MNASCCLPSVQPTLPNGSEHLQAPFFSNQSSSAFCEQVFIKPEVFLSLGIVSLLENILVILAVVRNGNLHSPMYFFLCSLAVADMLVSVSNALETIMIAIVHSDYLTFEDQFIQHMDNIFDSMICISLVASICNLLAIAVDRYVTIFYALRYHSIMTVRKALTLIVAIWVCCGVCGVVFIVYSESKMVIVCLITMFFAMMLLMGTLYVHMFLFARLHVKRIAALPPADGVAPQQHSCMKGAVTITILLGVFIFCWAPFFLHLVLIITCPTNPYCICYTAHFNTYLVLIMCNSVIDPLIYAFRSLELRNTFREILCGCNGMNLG
Procedure, shortened: as §1

[4] = target: T4, Human melanocortin (MC5) (Homo sapiens, UniProt P33032); test: Radioligand binding, human melanocortin MC5 membranes, FlashPlate, [125I]-NDP-αMSH; conditions: compound at 10 μM, [125I]-NDP-αMSH; for A5: inhibition of radioligand binding: human MC5 membranes
T4 construct: purchased Perkin Elmer Biosignal
T4 sequence (P33032 whole entry): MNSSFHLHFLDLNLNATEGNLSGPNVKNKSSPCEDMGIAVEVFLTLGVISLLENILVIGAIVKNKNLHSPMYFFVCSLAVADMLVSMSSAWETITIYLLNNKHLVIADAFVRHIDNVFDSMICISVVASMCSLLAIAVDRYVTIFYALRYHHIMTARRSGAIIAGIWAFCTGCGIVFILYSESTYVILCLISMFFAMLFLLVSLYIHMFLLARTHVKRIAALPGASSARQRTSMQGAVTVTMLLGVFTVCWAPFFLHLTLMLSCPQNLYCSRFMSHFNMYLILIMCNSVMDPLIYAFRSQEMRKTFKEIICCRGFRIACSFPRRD
Procedure, shortened: as §1

[5] = target: T5, Human neuropeptide Y (NPY-Y1) (Homo sapiens, UniProt P25929); test: Radioligand binding, human neuropeptide Y NPY-Y1 membranes, FlashPlate, [125I]-PYY; conditions: compound at 10 μM, [125I]-PYY; for A9: inhibition of radioligand binding: human NPY-Y1 membranes
T5 construct: purchased Perkin Elmer Biosignal
T5 sequence (P25929 1-384): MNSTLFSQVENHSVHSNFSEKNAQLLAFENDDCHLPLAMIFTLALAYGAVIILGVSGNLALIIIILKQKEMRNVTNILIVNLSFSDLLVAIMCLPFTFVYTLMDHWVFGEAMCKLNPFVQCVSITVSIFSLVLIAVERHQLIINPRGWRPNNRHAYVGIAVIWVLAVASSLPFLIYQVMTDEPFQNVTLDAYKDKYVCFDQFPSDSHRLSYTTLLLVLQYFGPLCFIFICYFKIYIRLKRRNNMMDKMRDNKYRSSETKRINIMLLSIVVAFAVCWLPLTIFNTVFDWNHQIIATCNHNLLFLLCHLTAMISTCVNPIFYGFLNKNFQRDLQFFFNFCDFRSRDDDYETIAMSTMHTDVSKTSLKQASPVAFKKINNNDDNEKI
Procedure, shortened: as §1

[6] = target: T6, Human neurokinin (NK1) (Homo sapiens, UniProt P25103); test: Radioligand binding, human neurokinin NK1 membranes, filtration, [125I]-Substance P; conditions: compound at 10 μM, [125I]-Substance P; for A8: inhibition of radioligand binding: human NK1 membranes
T6 construct: purchased Perkin Elmer Biosignal
T6 sequence (P25103 whole entry): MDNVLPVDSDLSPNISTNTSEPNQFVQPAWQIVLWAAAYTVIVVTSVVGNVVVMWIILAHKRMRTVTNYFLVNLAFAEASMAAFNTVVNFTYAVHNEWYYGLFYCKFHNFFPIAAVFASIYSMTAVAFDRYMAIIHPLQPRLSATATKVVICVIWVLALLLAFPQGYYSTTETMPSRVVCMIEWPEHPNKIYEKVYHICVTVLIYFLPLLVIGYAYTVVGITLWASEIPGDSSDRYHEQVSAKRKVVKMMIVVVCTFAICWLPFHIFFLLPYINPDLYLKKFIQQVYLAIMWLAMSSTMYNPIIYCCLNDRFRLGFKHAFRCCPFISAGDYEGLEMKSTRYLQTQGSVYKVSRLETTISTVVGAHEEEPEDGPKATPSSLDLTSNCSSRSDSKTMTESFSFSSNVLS
Procedure, shortened: as §2

[7] = target: T7, Mouse urotensin (mUR2) (Mus musculus, UniProt Q8VIH9); test: Radioligand binding, mouse urotensin mUR2 membranes, FlashPlate, [125I]-Urotensin II; conditions: compound at 10 μM, [125I]-Urotensin II; for A11: inhibition of radioligand binding: mouse mUR2 membranes
T7 construct: purchased Perkin Elmer Biosignal
T7 sequence (Q8VIH9 1-385): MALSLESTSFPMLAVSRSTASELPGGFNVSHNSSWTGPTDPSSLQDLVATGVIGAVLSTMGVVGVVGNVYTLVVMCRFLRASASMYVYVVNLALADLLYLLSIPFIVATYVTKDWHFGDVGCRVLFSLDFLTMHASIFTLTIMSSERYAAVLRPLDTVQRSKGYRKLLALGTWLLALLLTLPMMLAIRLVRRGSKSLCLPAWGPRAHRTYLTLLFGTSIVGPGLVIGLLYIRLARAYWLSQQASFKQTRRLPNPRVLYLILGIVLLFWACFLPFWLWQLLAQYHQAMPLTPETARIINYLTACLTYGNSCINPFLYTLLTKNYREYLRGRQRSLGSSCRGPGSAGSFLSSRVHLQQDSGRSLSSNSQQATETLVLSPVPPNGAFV
Procedure, shortened: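 Cloned mouse urotensin (mUR2) receptor membranes from Perkin Elmer Biosignal were immobilized in FlashPlate microplates using a proprietary coating. Each well got 19.5 μl buffer, then 0.5 μl of DMSO, reference ligand, or compound. Adding 5 μl of [125I]-Urotensin II, diluted to 5× final concentration in binding buffer, started binding. Plates were sealed with TopSeal-A and incubated 1 hour at room temperature in the dark. Wells were counted for 30 seconds each on a TopCount after a 60-second delay, and percentage inhibition was calculated.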

[8] = target: T8, Human δ-opioid (DOP) (Homo sapiens, UniProt P41143); test: Radioligand binding, human δ-opioid (DOP) membranes, FlashPlate, [3H]-Bremazocine; conditions: compound at 10 μM, [3H]-Bremazocine; for A1: inhibition of radioligand binding: human DOP membranes
T8 construct: purchased Perkin Elmer Biosignal
T8 sequence (P41143 whole entry): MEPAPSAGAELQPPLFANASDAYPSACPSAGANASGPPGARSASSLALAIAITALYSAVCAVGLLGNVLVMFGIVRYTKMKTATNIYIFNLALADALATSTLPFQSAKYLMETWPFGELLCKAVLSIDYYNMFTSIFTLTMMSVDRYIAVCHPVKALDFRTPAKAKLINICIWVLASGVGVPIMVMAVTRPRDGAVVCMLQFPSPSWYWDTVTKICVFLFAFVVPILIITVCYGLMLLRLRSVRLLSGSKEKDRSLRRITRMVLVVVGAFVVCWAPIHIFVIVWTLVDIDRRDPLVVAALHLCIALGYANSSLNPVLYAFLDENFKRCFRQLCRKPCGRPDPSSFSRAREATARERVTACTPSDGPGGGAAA
Procedure, shortened: as §1

[9] = target: T9, Human μ-opioid (MOP) (Homo sapiens, UniProt P35372); test: Radioligand binding, human μ-opioid (MOP) membranes, FlashPlate, [3H]-Naloxone; conditions: compound at 10 μM, [3H]-Naloxone; for A7: inhibition of radioligand binding: human MOP membranes
T9 construct: purchased Perkin Elmer Biosignal
T9 sequence (P35372 whole entry): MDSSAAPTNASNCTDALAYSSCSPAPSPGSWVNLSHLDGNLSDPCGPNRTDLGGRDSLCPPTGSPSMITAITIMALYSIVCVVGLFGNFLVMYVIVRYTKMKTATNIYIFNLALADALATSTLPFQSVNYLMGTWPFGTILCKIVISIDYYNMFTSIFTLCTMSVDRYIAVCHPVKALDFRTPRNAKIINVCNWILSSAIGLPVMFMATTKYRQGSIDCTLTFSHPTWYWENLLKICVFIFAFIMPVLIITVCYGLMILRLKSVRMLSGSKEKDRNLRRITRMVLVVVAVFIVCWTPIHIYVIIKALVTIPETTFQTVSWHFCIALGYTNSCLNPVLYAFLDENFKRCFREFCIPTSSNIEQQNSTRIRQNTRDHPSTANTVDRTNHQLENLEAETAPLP
Procedure, shortened: as §1

[10] = target: T10, Human opioid (ORL1) (Homo sapiens, UniProt P41146); test: Radioligand binding, human opioid ORL1 membranes, FlashPlate, [125I]-Nociceptin; conditions: compound at 10 μM, [125I]-Nociceptin; for A10: inhibition of radioligand binding: human ORL1 membranes, 10 µM
T10 construct: purchased Perkin Elmer Biosignal
T10 sequence (P41146 whole entry): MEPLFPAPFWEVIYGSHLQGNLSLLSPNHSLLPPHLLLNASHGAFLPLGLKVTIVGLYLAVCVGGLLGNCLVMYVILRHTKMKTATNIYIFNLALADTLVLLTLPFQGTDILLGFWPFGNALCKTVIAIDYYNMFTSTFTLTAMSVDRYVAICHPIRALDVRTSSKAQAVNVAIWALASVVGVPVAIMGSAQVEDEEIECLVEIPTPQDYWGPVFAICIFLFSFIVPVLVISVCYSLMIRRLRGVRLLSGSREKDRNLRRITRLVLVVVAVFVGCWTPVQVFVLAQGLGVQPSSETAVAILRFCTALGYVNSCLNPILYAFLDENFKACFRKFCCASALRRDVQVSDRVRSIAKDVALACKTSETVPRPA
Procedure, shortened: as §1

[11] = target: T11, Human Melanocortin (MC4) (Homo sapiens, UniProt P32245); test: Radioligand binding, human melanocortin MC4 membranes, FlashPlate, [125I]-NDP-αMSH; conditions: compound at 10 μM, [125I]-NDP-αMSH; for A4: inhibition of radioligand binding: human MC4 membranes
T11 construct: purchased Perkin Elmer Biosignal
T11 sequence (P32245 whole entry): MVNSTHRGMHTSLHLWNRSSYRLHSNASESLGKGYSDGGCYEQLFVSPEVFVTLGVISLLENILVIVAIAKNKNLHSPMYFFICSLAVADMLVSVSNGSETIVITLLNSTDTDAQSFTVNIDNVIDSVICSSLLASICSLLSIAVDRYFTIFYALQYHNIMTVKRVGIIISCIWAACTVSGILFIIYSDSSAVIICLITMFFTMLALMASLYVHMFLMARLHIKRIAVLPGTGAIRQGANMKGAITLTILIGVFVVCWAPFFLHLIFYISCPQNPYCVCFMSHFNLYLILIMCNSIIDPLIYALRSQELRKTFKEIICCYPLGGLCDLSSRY
Procedure, shortened: as §1

COCC1OC(NC(=O)Cc2ccccc2)C(NC(=O)CCCN)C(OCc2ccc3ccccc3c2)C1O (stereo not shown) [compound 543]
A6: inhibition of radioligand binding, human melanin-concentrating hormone (MCH1) [1]: − (“−” indicates less than 50% inhibition at 10 μM)
A2: inhibition of radioligand binding, human κ-opioid (KOP) [2]: − (“−” indicates less than 50% inhibition at 10 μM)
A3: inhibition of radioligand binding, human melanocortin (MC3) [3]: − (“−” indicates less than 50% inhibition at 10 μM)
A5: inhibition of radioligand binding, human melanocortin (MC5) [4]: − (“−” indicates less than 50% inhibition at 10 μM)
A9: inhibition of radioligand binding, human neuropeptide Y (NPY-Y1) [5]: − (“−” indicates less than 50% inhibition at 10 μM)
A8: inhibition of radioligand binding, human neurokinin (NK1) [6]: + (“+” indicates greater than 50% inhibition at 10 μM)
A11: inhibition of radioligand binding, mouse urotensin (mUR2) [7]: − (“−” indicates less than 50% inhibition at 10 μM)
A1: inhibition of radioligand binding, human δ-opioid (DOP) [8]: − (“−” indicates less than 50% inhibition at 10 μM)
A7: inhibition of radioligand binding, human μ-opioid (MOP) [9]: − (“−” indicates less than 50% inhibition at 10 μM)
A10: inhibition of radioligand binding, human opioid (ORL1) [10]: − (“−” indicates less than 50% inhibition at 10 μM)
A4: inhibition of radioligand binding, human melanocortin (MC4) [11]: − (“−” indicates less than 50% inhibition at 10 μM)

NCCCC(=O)NC1C(OCc2ccc3ccccc3c2)OC(COCc2ccc(Cl)cc2)C(O)C1OCc1ccc2ccccc2c1 (single isomer, unassigned) [compound 463]
A6: inhibition of radioligand binding ([1]; 10 µM): + (“+” indicates greater than 50% inhibition at 10 μM)
A2: inhibition of radioligand binding ([2]; 10 µM): + (“+” indicates greater than 50% inhibition at 10 μM)
A3: inhibition of radioligand binding [3]: + (“+” indicates greater than 50% inhibition at 10 μM)
A5: inhibition of radioligand binding [4]: + (“+” indicates greater than 50% inhibition at 10 μM)
A9: inhibition of radioligand binding [5]: − (“−” indicates less than 50% inhibition at 10 μM)
A8: inhibition of radioligand binding [6]: + (“+” indicates greater than 50% inhibition at 10 μM)
A11: inhibition of radioligand binding [7]: − (“−” indicates less than 50% inhibition at 10 μM)
A1: inhibition of radioligand binding [8]: − (“−” indicates less than 50% inhibition at 10 μM)
A7: inhibition of radioligand binding [9]: − (“−” indicates less than 50% inhibition at 10 μM)
A10: inhibition of radioligand binding [10]: − (“−” indicates less than 50% inhibition at 10 μM)
A4: inhibition of radioligand binding [11]: + (“+” indicates greater than 50% inhibition at 10 μM)

CSC1OC(COCc2cccc(N)c2)C(O)C(OCc2ccccc2)C1NC(=O)Cc1ccccc1 (stereo not shown) [compound 330]
A6: inhibition of radioligand binding, human melanin-concentrating hormone (MCH1) [1]: − (“−” indicates less than 50% inhibition at 10 μM)
A2: inhibition of radioligand binding, human κ-opioid (KOP) [2]: − (“−” indicates less than 50% inhibition at 10 μM)
A3: inhibition of radioligand binding, human melanocortin (MC3) [3]: − (“−” indicates less than 50% inhibition at 10 μM)
A5: inhibition of radioligand binding, human melanocortin (MC5) ([4]; 10 µM): − (“−” indicates less than 50% inhibition at 10 μM)
A9: inhibition of radioligand binding, human neuropeptide Y (NPY-Y1) [5]: − (“−” indicates less than 50% inhibition at 10 μM)
A8: inhibition of radioligand binding, human neurokinin (NK1) [6]: + (“+” indicates greater than 50% inhibition at 10 μM)
A11: inhibition of radioligand binding, mouse urotensin (mUR2) [7]: − (“−” indicates less than 50% inhibition at 10 μM)
A1: inhibition of radioligand binding, human δ-opioid (DOP) [8]: − (“−” indicates less than 50% inhibition at 10 μM)
A7: inhibition of radioligand binding, human μ-opioid (MOP) [9]: − (“−” indicates less than 50% inhibition at 10 μM)
A10: inhibition of radioligand binding, human opioid (ORL1) [10]: − (“−” indicates less than 50% inhibition at 10 μM)
A4: inhibition of radioligand binding, human melanocortin (MC4) [11]: − (“−” indicates less than 50% inhibition at 10 μM)

N=C(N)NCCCC(=O)NC1COC(COCc2ccc3ccccc3c2)C(O)C1OCc1ccc(Cl)cc1 (stereo not shown) [compound 541]
A6: inhibition of radioligand binding, human melanin-concentrating hormone (MCH1) [1]: − (“−” indicates less than 50% inhibition at 10 μM)
A2: inhibition of radioligand binding, human κ-opioid (KOP) [2]: − (“−” indicates less than 50% inhibition at 10 μM)
A3: inhibition of radioligand binding, human melanocortin (MC3) [3]: − (“−” indicates less than 50% inhibition at 10 μM)
A5: inhibition of radioligand binding, human melanocortin (MC5) [4]: − (“−” indicates less than 50% inhibition at 10 μM)
A9: inhibition of radioligand binding, human neuropeptide Y (NPY-Y1) [5]: − (“−” indicates less than 50% inhibition at 10 μM)
A8: inhibition of radioligand binding, human neurokinin (NK1) [6]: + (“+” indicates greater than 50% inhibition at 10 μM)
A11: inhibition of radioligand binding, mouse urotensin (mUR2) [7]: − (“−” indicates less than 50% inhibition at 10 μM)
A1: inhibition of radioligand binding, human δ-opioid (DOP) [8]: − (“−” indicates less than 50% inhibition at 10 μM)
A7: inhibition of radioligand binding, human μ-opioid (MOP) [9]: − (“−” indicates less than 50% inhibition at 10 μM)
A10: inhibition of radioligand binding, human opioid (ORL1) [10]: − (“−” indicates less than 50% inhibition at 10 μM)
A4: inhibition of radioligand binding, human melanocortin (MC4) [11]: − (“−” indicates less than 50% inhibition at 10 μM)

NCCCC(=O)NC1C(OCc2ccc3ccccc3c2)OC(COCc2ccccc2)C(O)C1OCc1ccccc1 (single isomer, unassigned) [compound 467]
A6: inhibition of radioligand binding [1]: − (“−” indicates less than 50% inhibition at 10 μM)
A2: inhibition of radioligand binding [2]: − (“−” indicates less than 50% inhibition at 10 μM)
A3: inhibition of radioligand binding [3]: − (“−” indicates less than 50% inhibition at 10 μM)
A5: inhibition of radioligand binding [4]: − (“−” indicates less than 50% inhibition at 10 μM)
A9: inhibition of radioligand binding [5]: − (“−” indicates less than 50% inhibition at 10 μM)
A8: inhibition of radioligand binding [6]: + (“+” indicates greater than 50% inhibition at 10 μM)
A11: inhibition of radioligand binding [7]: − (“−” indicates less than 50% inhibition at 10 μM)
A1: inhibition of radioligand binding [8]: − (“−” indicates less than 50% inhibition at 10 μM)
A7: inhibition of radioligand binding ([9]; 10 µM): − (“−” indicates less than 50% inhibition at 10 μM)
A10: inhibition of radioligand binding [10]: − (“−” indicates less than 50% inhibition at 10 μM)
A4: inhibition of radioligand binding ([11]; 10 µM): − (“−” indicates less than 50% inhibition at 10 μM)
